Results from patent US7803377B2, “Anti-DLL4 antibodies and methods using same” (Genentech, Inc., priority 2006, dated 2010).

Assays:
[1] = biological target: T1, human Delta4 (ECD5.5) (Homo sapiens, UniProt Q9NR61); assay: Surface plasmon resonance (BIAcore-3000) binding affinity and kinetics; details: human DLL4-His; Kd calculated as koff/kon; listed as YW26.81
T1 construct: DLL4-His (C-terminal His-tagged human DLL4, amino acid 1-404); His (C)
Protocol: (§1) To determine the binding affinity of the anti-DLL4 Mabs, surface plasmon resonance (SRP) measurement with a BIAcore™-3000 was used (BIAcore, Inc., Piscataway, N.J.). Briefly, carboxymethylated dextran biosensor chips (CM5, BIAcore Inc.) were activated with N-ethyl-N′-(3-dimethylaminopropyl)-carbodiimide hydrochloride (EDC) and N-hydroxysuccinimide (NHS) according to the supplier's instructions. Anti-DLL4 antibody was diluted with 10 mM sodium acetate, pH 4.8, into 5 μg/ml before injection at a flow rate of 5 μl/minute to achieve approximately 500 response units (RU) of coupled antibody. Next, IM ethanolamine was injected to block unreacted groups. For kinetics measurements, two-fold serial dilutions of either human or murine DLL4-His molecules (0.7 nM to 500 nM) were injected in PBS with 0.05% Tween™ 20 at 25° C. at a flow rate of 25 μl/min. Association rates (kon) and dissociation rates (koff) were calculated using a simple one-to-one Langmuir binding model (BIAcore Evaluation Software version 3.2). The equilibrium dissociation constant (Kd) was calculated as the ratio koff/kon.

[2] = biological target: T2, murine Delta4 (ECD5.5) (Mus musculus, UniProt Q9JI71); assay: as above; details: murine DLL4-His; Kd calculated as koff/kon
T2 construct: murine Delta4 (ECD5.5); His
Protocol: as §1

[3] = tested on: VEGFR2; assay: Real-time quantitative RT-PCR of VEGFR2 expression in HUVECs; assay type: cell-based, human; details: 3-D fibrin gel culture of HUVECs (7 d); anti-DLL4 antibody 5 μg/ml, DBZ 0.08 μM
Protocol: RNA extraction and Real-time quantitative RT-PCR. Extraction of total RNA from HUVECs in 2-D culture was done using RNeasy® Mini Kit (Qiagen) as per instructions of the manufacturer. To extract total RNA from HUVECs growing in fibrin gels, fibrin gels were treated with 10× trypsin-EDTA (Gibco) for 5 min to remove the top layer fibroblasts, followed by neutralization with 10% FBS in PBS. The gel clots were then removed from tissue culture wells and subjected to centrifugation (10K for 5 min) in microtubes to remove excessive fluid. The resulting gel “pellets” were lysed with lysis buffer (RNeasy® Mini Kit), and further processed as with HUVECs in 2-D culture. The quality of RNA was assessed using RNA 6000 Nano Chips and the Agilent 2100 Bioanalyzer (Agilent Technologies). Real-time quantitative RT-PCR reactions were done in triplicate using 7500 Real Time PCR System (Applied Biosystems). Human GAPDH was used as reference gene for normalization. The expression levels are expressed as the mean (±SEM) fold mRNA changes relative to control from 3 separate determinations. The forward and reverse primer and probe sequences for VEGFR2, TGFβ2 and GAPDH were as follows.
Therefore, while VEGF can act upstream of DLL4/Notch pathway, DLL4/Notch is capable of fine-tuning the response through negatively regulating VEGFR2 expression.

[4] = tested on: human lung carcinoma Calu6 cells; assay: Tumor model Calu6; assay type: in vivo, mouse; details: treatment initiated at ≧250 mm^3; 10 mg/kg i.p. twice weekly; two weeks of treatment
Protocol: (§2) Tumor models. Beige nude female mice of 8- to 10-week-old were used. To obtain subcutaneous tumors, mice were injected with 0.1 ml cell suspension containing 50% matrigel (BD Bioscience) into the right posterior flank. 5×10^6 human colon cancer HM7 cells, 10×10^6 human colon carcinoma Colo205 cells, 10×10^6 human lung carcinoma Calu6 cells, 10×10^6 human lung carcinoma MV-522 cells, 10×10^6 mouse leukemia WEHI-3 cells, 10×10^6 mouse lymphoma EL4 cells, 10×10^6 human ovarian cancer SK-OV-3 X1 cells, 10×06 mouse lung cancer LL2 cells, 10×10^6 leukemia/lymphoma EL4 cells, or 10×10^6 non-small lung cancer H1299 cells were injected into each mouse. For human melanoma MDA-MB-435 model, mice were injected into the mammary fat pad with 0.1 ml cell (5×10^6) suspension containing 50% matrigel. […] For the following tumor models, each test mouse received a subcutaneous tumor fragment (1 mm^3) implanted in the right flank: non-small lung cancer SKMES-1, human breast cancer MX-1, human colorectal cancer SW620 and human adenocarcinoma LS174T. The tumor growth was quantitated by caliper measurements. Tumor volume (mm^3) was determined by measuring the length (l) and width (w) and calculating the volume (V=lw2/2). 10 to 15 animals were included in each group. Statistical comparison of treatment groups was performed using two-tailed Student's t-test. […]

[5] = tested on: mouse lung cancer LL2 cells; assay: Tumor model LL2; assay type: in vivo; details: 5 mg/kg, IP, twice weekly after establishment of the tumors
Protocol: as §2

T1 sequence (Q9NR61 27-404): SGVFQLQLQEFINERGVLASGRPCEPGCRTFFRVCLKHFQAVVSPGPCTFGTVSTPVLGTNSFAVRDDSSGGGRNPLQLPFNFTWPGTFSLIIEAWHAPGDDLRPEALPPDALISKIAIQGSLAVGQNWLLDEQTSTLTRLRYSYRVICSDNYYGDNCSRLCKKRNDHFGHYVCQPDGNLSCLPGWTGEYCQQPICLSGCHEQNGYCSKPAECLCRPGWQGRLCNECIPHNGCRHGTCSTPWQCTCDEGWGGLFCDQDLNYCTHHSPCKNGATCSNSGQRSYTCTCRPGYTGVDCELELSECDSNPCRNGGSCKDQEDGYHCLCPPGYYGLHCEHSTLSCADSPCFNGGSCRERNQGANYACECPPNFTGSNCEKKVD
T2 sequence (Q9JI71 27-405 limits assumed): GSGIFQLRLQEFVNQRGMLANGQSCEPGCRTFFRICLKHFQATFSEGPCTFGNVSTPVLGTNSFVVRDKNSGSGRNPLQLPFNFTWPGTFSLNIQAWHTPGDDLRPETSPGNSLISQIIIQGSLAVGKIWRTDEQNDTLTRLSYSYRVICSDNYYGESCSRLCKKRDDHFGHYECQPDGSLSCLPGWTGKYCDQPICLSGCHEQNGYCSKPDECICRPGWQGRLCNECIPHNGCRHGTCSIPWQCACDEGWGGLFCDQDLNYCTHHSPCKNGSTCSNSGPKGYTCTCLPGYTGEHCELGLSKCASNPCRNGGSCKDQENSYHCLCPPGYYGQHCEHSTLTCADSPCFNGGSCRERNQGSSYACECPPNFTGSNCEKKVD

Q: For “YW26.82: affinity matured anti-DLL4 monoclonal antibody; HVR-H1/H2/H3 SEQ ID NO:1, 8, 9; HVR-L1/L2/L3 SEQ ID NO:10, 11, 18”, which Kd [1] is on record?
A: The Kd was 0.1 nM.

Q: And the Kd [2]?
A: Its Kd is 0.09 nM.

Q: And the “VEGFR2 expression on Notch blockade” value [3]?
A: Its value is “upregulation of VEGFR2”.

Q: What about the tumor volume [4] of the same substance?
A: The tumor volume was “remained static”.

Q: What about the “tumor growth, single agent” value [5] of the same substance?
A: The value was “inhibited tumor growth alone”.
